Test: mn = molality of the nth substance listed, in mol/kg
Details: 101 kPa, Liquid; for speed of sound: Sing-around technique in a fixed-path interferometer; for mass density: Vibrating tube method

CCCCn1cc[n+](C)c1.O=S(=O)([O-])C(F)(F)F [1-butyl-3-methylimidazolium trifluoromethanesulfonate] + O
Details | mass density, 288.15 K [kg/m3] | mass density, 293.15 K [kg/m3] | mass density, 298.15 K [kg/m3] | mass density, 303.15 K [kg/m3] | mass density, 308.15 K [kg/m3] | speed of sound, 288.15 K [m/s] | speed of sound, 293.15 K [m/s] | speed of sound, 298.15 K [m/s] | speed of sound, 303.15 K [m/s] | speed of sound, 308.15 K [m/s]
m1 = 0.051 | 1002.68 | 1001.73 | 1000.53 | 999.089 | 997.44 | 1472.8 | 1488 | 1501.7 | 1513.5 | 1523.6
m1 = 0.1023 | 1006.18 | 1005.17 | 1003.9 | 1002.43 | 1000.76 | 1478.5 | 1493.2 | 1506.2 | 1517.4 | 1527
m1 = 0.1499 | 1009.37 | 1008.3 | 1007 | 1005.49 | 1003.78 | 1483.8 | 1497.9 | 1510.2 | 1520.8 | 1529.8
m1 = 0.1996 | 1012.64 | 1011.5 | 1010.17 | 1008.6 | 1006.87 | 1489.1 | 1502.4 | 1514.2 | 1524.5 | 1533
m1 = 0.2496 | 1015.85 | 1014.68 | 1013.28 | 1011.7 | 1009.91 | 1494.2 | 1507 | 1518.1 | 1527.6 | 1535.6
m1 = 0.3019 | 1019.2 | 1017.92 | 1016.52 | 1014.86 | 1013.02 | 1499.2 | 1511.3 | 1521.8 | 1530.8 | 1538.2
m1 = 0.3489 | 1022.13 | 1020.78 | 1019.36 | 1017.64 | 1015.77 | 1503.5 | 1515 | 1525 | 1533.5 | 1540.5
m1 = 0.4034 | 1025.46 | 1024.1 | 1022.57 | 1020.8 | 1018.88 | 1508.2 | 1519 | 1528.4 | 1536.3 | 1542.8
m1 = 0.4532 | 1028.45 | 1027.06 | 1025.5 | 1023.65 | 1021.69 | 1512.3 | 1522.7 | 1531.5 | 1538.9 | 1544.9
m1 = 0.5045 | 1031.5 | 1030.04 | 1028.46 | 1026.57 | 1024.5 | 1517 | 1526.9 | 1534.1 | 1541 | 1546.6

CCCCn1cc[n+](C)c1.[I-] [1-butyl-3-methylimidazolium iodide] + O
Details | mass density, 288.15 K [kg/m3] | mass density, 293.15 K [kg/m3] | mass density, 298.15 K [kg/m3] | mass density, 303.15 K [kg/m3] | mass density, 308.15 K [kg/m3] | speed of sound, 288.15 K [m/s] | speed of sound, 293.15 K [m/s] | speed of sound, 298.15 K [m/s] | speed of sound, 303.15 K [m/s] | speed of sound, 308.15 K [m/s]
m1 = 0.0514 | 1003.51 | 1002.58 | 1001.37 | 999.906 | 998.257 | 1471.2 | 1486.3 | 1500 | 1511.9 | 1522.2
m1 = 0.1017 | 1007.71 | 1006.74 | 1005.46 | 1003.96 | 1002.28 | 1475.6 | 1489.8 | 1503 | 1514.5 | 1524.4
m1 = 0.1497 | 1011.65 | 1010.64 | 1009.32 | 1007.76 | 1006.08 | 1479.5 | 1493.2 | 1505.8 | 1516.8 | 1526.2
m1 = 0.1995 | 1015.69 | 1014.61 | 1013.26 | 1011.7 | 1009.95 | 1483.3 | 1496.4 | 1508.5 | 1519.1 | 1528.1
m1 = 0.2522 | 1019.87 | 1018.75 | 1017.37 | 1015.77 | 1013.98 | 1487.2 | 1499.6 | 1511.4 | 1521.6 | 1530.1
m1 = 0.3025 | 1023.82 | 1022.63 | 1021.27 | 1019.6 | 1017.78 | 1491 | 1502.7 | 1514 | 1523.7 | 1531.9
m1 = 0.3477 | 1027.3 | 1026.08 | 1024.71 | 1023 | 1021.14 | 1494.2 | 1505.2 | 1516.1 | 1525.5 | 1533
m1 = 0.4036 | 1031.57 | 1030.23 | 1028.85 | 1027.14 | 1025.23 | 1498 | 1508.5 | 1519 | 1527.7 | 1534.9
m1 = 0.4508 | 1035.08 | 1033.71 | 1032.38 | 1030.58 | 1028.63 | 1501.1 | 1511.1 | 1521.1 | 1529.7 | 1536.2
m1 = 0.5032 | 1038.95 | 1037.5 | 1036.15 | 1034.41 | 1032.4 | 1504.9 | 1514.1 | 1523.7 | 1531.8 | 1537.6
